Measurements: patent publication US20040082664A1, “Derivatives of hydroxyphenyl, a method for preparing thereof and their pharmaceutical composition” (priority 2002, published 2004)

Tests used:
IL-2 promoter = IL-2 promoter luciferase reporter assay in anti-CD3 activated Jurkat cells; format: cell-based; details: Homo sapiens, TCR-induced (anti-CD3) IL-2 promoter luciferase, 2 h pre-incubation
Procedure: In order to confirm whether the compounds of the invention can pass through a cell membrane and inhibit the expression of IL-2 gene leading to T-cell proliferation, the present inventors firstly confirmed T-cell activity by detecting the activity of the luciferase fused on the downstream of IL-2 promoter.
To investigate the activity of IL-2 promoter, Jurkat cells (1×10^6) were transfected with a IL-2 reporter plasmids using Superfect™ (Qiagen Inc.). After 24 hours of transfection, Jurkat cells were pre-incubated with compounds of various concentrations (1 uM-50 uM) for 2 hours and further cultured on 35mm plate pre-coated with 5 ug/ml of anti-CD3 antibody, resulting in T cell activation. The luciferase activity was measured using Berthold luminometer LB953. The IC50 (50% inhibition concentration) of the compounds of the invention on TCR-induced IL-2 promoter activation are shown in Table 2.

[1] = test system: collagen-induced rheumatoid arthritis; assay: Inhibition of collagen-induced rheumatoid arthritis in DBA1/LacJ mice; format: in vivo, mouse; set-up: key: sum of 4 leg scores (0-4 each), max 16; details: 50 mg/kg/day i.p. daily; day 15 after treatment (day 36 after primary immunization); sum of scores of four legs, maximum 16; mean ± standard deviation
Procedure: After 2 weeks, booster immunization was carried out with 50 μg C II/IFA. From the 3rd week after primary immunization, compounds of the present invention were injected daily into peritoneal cavities of 6-8 mice per group for 15-20 days.
The vehicle control groups were injected daily with 100 μl of 5% ethanol-olive oil mixture in total 15-20 times. Widely used anti-rheumatic drug, Methotrexate, was dissolved in PBS and then injected to mice at 1 mg/kg/day every other day in total 8-10 times. Meanwhile, the compounds of the invention were dissolved in ethanol and then mulsified in olive oil, in which the final ethanol concentration was adjusted to 5% and the compounds of this invention was 50 mg/kg/day.
From the 3rd week after primary immunization, the extent of edema and the joint swelling was monitored everyday to determine arthritic index. Arthitic index is the sum of the arthritic scores of all 4 legs and, therefore, maximum arthritis index of 16 can be achieved (e.g., [4 (maximum arthritic score)/leg]×[4 legs/mouse]=16 (maximum arthritis index/mouse)). […] was presented by the mean arthritis index±standard deviation of each mouse group.

GST-fused lck SH2 domain = molecular target: T1, GST-fused lck SH2 domain (Homo sapiens, UniProt P06239); assay: Inhibition of in vitro binding of lck SH2 domain to its cognate pYEEI peptide (BIAcore 2000); details: IC50 class for inhibition of GST-lckSH2 binding to immobilized biotinylated […]pYEEIPI peptide; read-out: BOND DEGREE WITH SH2 OF 1ck
T1 construct: GST (Glutathione transferase)-fused lck SH2 domain
T1 sequence (P06239 127-224 limits assumed): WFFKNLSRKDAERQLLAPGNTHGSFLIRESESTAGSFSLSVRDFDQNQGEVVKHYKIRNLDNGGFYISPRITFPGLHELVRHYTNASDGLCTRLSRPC
Procedure: The present inventors investigated the inhibition activity of phenyl derivatives on the interaction of GST (Glutathione transferase)-fused lck SH2 domain and a peptide […]pYEEIPI (comprising the sequence PYEEI, a cognate peptide of Lck SH2) by using a real time sensorgram (BIAcore 2000).
At first, the biotinylated peptide was fixed on the surface of BIAcore analysis apparatus and then GST-lckSH2 protein was injected over the surface of the immobilized peptides. The binding of GST-lck SH2 with the peptide is represented as the resonance units (referred as “RU” hereinafter) and 1,000 RU corresponds to a change in surface concentration of 1 ng/mm^2. The binding of GST-lck with the fixed peptide causes the change of refractory index, leading to the increase of RU. In the mean time, when the binding of GST-lck with the fixed peptide is inhibited, RU decreases. Those results are represented in Table 1.

skin allograft rejection = assay: Inhibition of skin allograft rejection (Balb/c tail skin grafted onto C57BL/6 mouse); format: in vivo
Procedure: For the experiment, allogeneic Balb/c(H-2d) mouse-tail skin was grafted onto C57BL/6(H-2b) mouse. Generally 7-8 mice were assigned to each group. All the phenyl derivatives were dissolved in 100% ethanol, mixed with olive oil, and adjusted to the final concentration of ethanol therein less than 5%. […] Meanwhile, for the group of untreated mice, an olive oil-ethanol mixture was administered as a control. The grafted skin was monitored daily after the removal of the bandage on days 7-9. Rejection was defined as more than 80% necrosis of the graft epithelium.

[2] = 100 mg/kg/day into abdominal cavity from day of transplantation until complete rejection

Compound | IC50 (IL-2 promoter) [µM] | Arthritis index [1] | IC50 (GST-fused lck SH2 domain) [µM] | Survival time of skin graft tissue (days ± variance) (skin allograft rejection; [2]) [days] | Survival time of skin graft tissue (days ± variance) (skin allograft rejection; Rapamycine 1 mg/kg/day) [days] | Survival time of skin graft tissue (days ± variance) (skin allograft rejection; Rapamycine 4 mg/kg/day) [days]
O=C(/C=C/c1ccc(O)c(O)c1)NCCc1ccc(O)c(O)c1 [Example 43, 3-(3,4-dihydroxy-phenyl)-N-[2-trans-(3,4-dihydroxy-phenyl)-ethyl]-acrylamide] | 21.2 | 6.0 ± 1.9 | 25 to 50 | 13.1 ± 0.9 | – | –
CN(CCc1ccc(O)c(O)c1)C(=O)/C=C/c1ccc(O)c(O)c1 [Example 44, 3-(3,4-dihydroxy-phenyl)-N-[2-(3,4-dihydroxy-phenyl)-ethyl]-N-methyl-acrylamide] | 17.4 | 6.8 ± 1.0 | 25 to 50 | 12.5 ± 0.9 | – | –
CN(C(=O)/C=C/c1ccc(O)c(O)c1)[C@@H](Cc1ccc(O)c(O)c1)C(=O)OC(C)(C)C [Example 41, 3-(3,4-dihydroxy-phenyl)-(S)-2-{[3-trans-(3,4-dihydroxy-phenyl)-acryloyl]-methyl-amino}-propionic acid tert-butyl ester] | 15.7 | 6.7 ± 1.6 | 25 to 50 | 13.7 ± 0.6 | – | –
COC(=O)[C@H](Cc1ccc(O)cc1)NC(=O)/C=C/c1ccc(O)c(O)c1 [Example 47, (S)-2-[trans-3-(3,4-dihydroxy-phenyl)-acryloylamino]-3-(4-hydroxy-phenyl)-propionic acid methyl ester] | 21 | 6.9 ± 1.1 | 25 to 50 | 11.7 ± 1.0 | – | –
CN(C(=O)/C=C/c1ccc(O)c(O)c1)[C@@H](Cc1ccc(O)c(O)c1)C(N)=O [Example 42, N-[l-carbamoyl-2-(3,4-dihydroxy-phenyl)-ethyl]-(S)-3-trans-(3,4-dihydroxy-phenyl)-N-methyl-acrylamide] | 14.6 | 5.1 ± 1.9 | 10 to 25 | 14.3 ± 0.9 | – | –
COC(=O)C(Cc1ccc(O)c(O)c1)NC(=O)Cc1ccc(O)c(O)c1 (stereo not shown) [Example 50, 3-(3,4-dihydroxy-phenyl)-2-[2-(3,4-dihydroxy-phenyl)-acetylamino]-propionic acid methyl ester] | 18.6 | 4.8 ± 1.1 | < 10 | 12.8 ± 0.9 | – | –
O=C(/C=C/c1ccc(O)c(O)c1)N[C@H](Cc1ccc(O)c(O)c1)C(=O)O [Example 2, 3-(3,4-dihydroxy-phenyl)-(R)-2-[3-trans-(3,4-dihydroxy-phenyl)-acryloylamino]-propionic acid] | 15 | 7.2 ± 1.5 | < 10 | 14.8 ± 0.5 | – | –
CCCOC(=O)[C@@H](Cc1ccc(O)c(O)c1)OC(=O)/C=C/c1ccc(O)c(O)c1 [Example 55, (R)-3-(3,4-Dihydroxy-phenyl)-acrylic acid 2-(3,4-dihydroxy-phenyl)-1-propoxycarbonyl ethyl ester] | 5.7 | 4.8 ± 0.8 | 10 to 25 | 12.1 ± 0.8 | – | –
CCCOC(=O)[C@H](Cc1ccc(O)c(O)c1)NC(=O)/C=C/c1ccc(O)c(O)c1 [Example 11, 3-(3,4-dihydroxy-phenyl)-(S)-2-[3-trans-(3,4-dihydroxy-phenyl)-acryloylamino]-propionic acid propyl ester] | 4.9 | 6.1 ± 1.3 | 10 to 25 | 14.4 ± 0.9 | – | –
COC(=O)C(Cc1ccc(O)c(O)c1)NC(=O)c1ccc(O)c(O)c1 (stereo not shown) [Example 51, 2-(3,4-dihydroxy-benzoylamino)-3-(3,4-dihydroxy-phenyl)-propionic acid methyl ester] | 17.5 | 5.5 ± 0.5 | < 10 | 12.5 ± 1.1 | – | –
CC(C)OC(=O)[C@H](Cc1ccc(O)c(O)c1)NC(=O)/C=C/c1ccc(O)c(O)c1 [Example 12, 3-(3,4-dihydroxy-phenyl)-(S)-2-[3-trans-(3,4-dihydroxy-phenyl)-acryloylamino]-propionic acid isopropyl ester] | 9.5 | 5.1 ± 0.7 | 10 to 25 | 15.7 ± 0.8 | – | –
CO[C@H]1C[C@@H]2CC[C@@H](C)[C@@](O)(O2)C(=O)C(=O)N2CCCC[C@H]2C(=O)O[C@H]([C@H](C)C[C@@H]2CC[C@@H](O)[C@H](OC)C2)CC(=O)[C@H](C)/C=C(\C)[C@@H](O)[C@@H](OC)C(=O)[C@H](C)C[C@H](C)/C=C/C=C/C=C/1C [Rapamycine, reference compound] | – | – | – | – | 12.7 ± 1.5 | 16.2 ± 1.0
CC(C)(C)OC(=O)[C@H](Cc1ccc(O)c(O)c1)NC(=S)/C=C/c1ccc(O)c(O)c1 [Example 27, 3-(3,4-dihydroxy-phenyl)-(S)-2-[3-trans-(3,4-dihydroxy-phenyl)-thioacryloylamino]-propionic acid tert-butyl ester] | 20.1 | 6.6 ± 1.1 | 25 to 50 | 12.3 ± 0.6 | – | –
COC(=O)[C@H](Cc1ccc(O)c(O)c1)NC(=O)/C=C/c1ccc(O)c(O)c1 [Example 8, 3-(3,4-dihydroxy-phenyl)-(S)-2-[3-trans-(3,4-dihydroxy-phenyl)-acryloylamino]-propionic acid methyl ester] | 10.9 | 6.0 ± 1.1 | 10 to 25 | 15.2 ± 1.1 | – | –
COC(=O)[C@@H](Cc1ccc(O)c(O)c1)OC(=O)/C=C/c1ccc(O)c(O)c1 [Example 54, (R)-3-(3,4-dihydroxy-phenyl)-acrylic acid 2-(3,4-dihydroxy-phenyl)-1-methoxycarbonyl ethyl ester] | 4.5 | 3.5 ± 1.1 | 10 to 25 | 13 ± 0.9 | – | –
COC(=O)C(Cc1ccc(O)c(O)c1)NC/C=C/c1ccc(O)c(O)c1 (stereo not shown) [Example 53, 3-(3,4-dihydroxy-phenyl)-2-[3-(3,4-dihydroxy-phenyl)-arylamino]-propionic acid methyl ester] | 24.4 | 9.8 ± 1.2 | – | 11.9 ± 1.1 | – | –
CC(C)OC(=O)[C@@H](Cc1ccc(O)c(O)c1)NC(=S)/C=C/c1ccc(O)c(O)c1 [Example 19, 3-(3,4-dihydroxy-phenyl)-(R)-2-[3-trans-(3,4-dihydroxy-phenyl)-thioacryloylamino]-propionic acid isopropyl ester] | 8.9 | 5.1 ± 1.1 | 10 to 25 | – | – | –
CN(C(=O)/C=C/c1ccc(O)c(O)c1)[C@H](Cc1ccc(O)c(O)c1)C(N)=O [Example 35, N-[l-carbamoyl-2-(3,4-dihydroxy-phenyl)-ethyl]-(R)-3-trans-(3,4-dihydroxy-phenyl)-N-methyl-acrylamide] | 9.7 | 6.8 ± 1.9 | 10 to 25 | – | – | –
CCCOC(=O)[C@@H](Cc1ccc(O)c(O)c1)N(C)C(=O)/C=C/c1ccc(O)c(O)c1 [Example 32] | 9 | 5.3 ± 1.7 | 10 to 25 | – | – | –
COC(=O)[C@H](Cc1ccc(O)c(O)c1)NC(=S)/C=C/c1ccc(O)c(O)c1 [Example 22] | 13.9 | 6.9 ± 1.2 | 25 to 50 | – | – | –
